This is an account of results in patent US9611289B2, “Farnesoid X receptor modulators” (Intercept Pharmaceuticals, Inc., priority 2013, dated 2017).

For series [1], the target named is CYP2D6 (Homo sapiens, UniProt P10635). The series is described as follows: biochemical.
Series [2] is described as follows: 1-octanol-water partition coefficient (LogPA-). The note with it: ionized species.
For series [3], the target named is CYP2C9 (Homo sapiens, UniProt P11712). Put plainly: biochemical.
Series [4] concerns the target CYP2C19 (Homo sapiens, UniProt P33261). The series is described as follows: biochemical.
Series [5] has as its target T1, PXR (Homo sapiens, UniProt O75469).
T1 sequence (O75469 1-434): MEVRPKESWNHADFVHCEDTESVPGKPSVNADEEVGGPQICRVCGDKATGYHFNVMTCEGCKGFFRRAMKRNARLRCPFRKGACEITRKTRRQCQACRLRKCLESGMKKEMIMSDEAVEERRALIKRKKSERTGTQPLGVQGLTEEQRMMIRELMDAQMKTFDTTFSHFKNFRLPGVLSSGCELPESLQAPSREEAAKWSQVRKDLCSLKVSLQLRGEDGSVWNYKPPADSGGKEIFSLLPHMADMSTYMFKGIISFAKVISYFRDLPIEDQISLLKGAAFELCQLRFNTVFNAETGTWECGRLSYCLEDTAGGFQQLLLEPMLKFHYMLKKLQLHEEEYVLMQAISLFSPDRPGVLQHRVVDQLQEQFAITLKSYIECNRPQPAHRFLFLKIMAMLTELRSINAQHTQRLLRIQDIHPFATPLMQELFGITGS
The series is described as follows: AlphaScreen nuclear receptor activation. The class given is biochemical.

The target of series [6] is RARα (Homo sapiens, UniProt P10276). Put plainly: AlphaScreen nuclear receptor activation. The class given is biochemical. (Bead proximity is the source of the signal in Alpha formats.)
A short description of series [7]: Water solubility.
Series [8] relates to HepG2 cells. The series is described as follows: Cell viability by intracellular ATP in HepG2 cells. Type of series: cell-based, human. To be noted: 4 h, different concentrations, FIG. 6.
Series [9] addresses CYP2E1 (Homo sapiens, UniProt P05181). Put plainly: biochemical.
Series [10] addresses hERG potassium channel (Homo sapiens, UniProt Q12809). The series is described as follows: PREDICTOR hERG Fluorescence Polarization assay. The note with it: CHO-hERG membrane preparations.
Series [11] addresses T2, CYP1A2 (Homo sapiens, UniProt P05177).
T2 sequence (P05177 1-516): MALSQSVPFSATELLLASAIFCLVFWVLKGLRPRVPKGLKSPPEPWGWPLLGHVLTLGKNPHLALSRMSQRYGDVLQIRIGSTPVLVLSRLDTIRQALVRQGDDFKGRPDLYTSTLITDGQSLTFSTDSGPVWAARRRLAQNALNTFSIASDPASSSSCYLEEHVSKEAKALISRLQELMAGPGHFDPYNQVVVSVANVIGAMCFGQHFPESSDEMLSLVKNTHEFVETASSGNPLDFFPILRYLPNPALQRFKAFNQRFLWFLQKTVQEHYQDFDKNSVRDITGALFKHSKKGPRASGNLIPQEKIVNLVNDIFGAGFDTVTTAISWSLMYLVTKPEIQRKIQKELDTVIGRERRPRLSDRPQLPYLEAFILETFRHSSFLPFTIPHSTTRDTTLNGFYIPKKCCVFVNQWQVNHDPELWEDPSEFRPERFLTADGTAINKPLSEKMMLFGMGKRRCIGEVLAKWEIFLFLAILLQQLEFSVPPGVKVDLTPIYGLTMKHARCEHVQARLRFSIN
Put plainly: biochemical.

Series [12] has as its target T3, CYP3A4 (Homo sapiens, UniProt P08684). Put plainly: biochemical.
For series [13], the target named is T3, CYP3A4. The series is described as follows: CYP450 inhibition, recombinant baculosomes, fluorescent signal. The note with it: read-out: CYP3A4 (Green Substrate) IC50.
Series [14] concerns HepG2 cells.
Series [15] has as its system TR. The series is described as follows: AlphaScreen nuclear receptor activation. The class given is biochemical.
Series [16] has as its target PPARδ (Homo sapiens, UniProt Q03181). Put plainly: AlphaScreen nuclear receptor activation. The class given is biochemical.
The target of series [17] is T4, CAR (Homo sapiens, UniProt Q14994). Put plainly: AlphaScreen nuclear receptor activation. Type of series: biochemical.
For series [18], the target named is PPARα (Homo sapiens, UniProt Q07869). Put plainly: AlphaScreen nuclear receptor activation. The class given is biochemical.
Series [19] concerns the target VDR (Homo sapiens, UniProt P11473). The series is described as follows: AlphaScreen nuclear receptor activation. The class given is biochemical.
Series [20] can be described thus: Surface tension at CMC. The class given is physicochemical. The note with it: […] NaCl water solution.
Series [21] concerns the target PPARγ (Homo sapiens, UniProt P37231). The series is described as follows: AlphaScreen nuclear receptor activation. Type of series: biochemical.
Series [22] concerns the target LXRβ (Homo sapiens, UniProt P55055). Put plainly: AlphaScreen nuclear receptor activation. Type of series: biochemical.
The subject of series [23] is ER.
Series [24] concerns FXR target genes. Put plainly: Quantitative RT-PCR of FXR target genes in HepG2 cells. The note with it: 1 μM, overnight. The class given is cell-based, human.
Series [25] addresses PR (Homo sapiens, UniProt P06401). The series is described as follows: AlphaScreen nuclear receptor activation. The class given is biochemical.
The nature of series [26]: physchem. The note with it: water.
A short description of series [27]: Critical micellar concentration. To be noted: […] NaCl water solution. Type of series: physicochemical.
Series [28] deals with GR (Homo sapiens, UniProt P04150). Put plainly: AlphaScreen nuclear receptor activation. Type of series: biochemical.
The test system of series [29] is RXR. The series is described as follows: AlphaScreen nuclear receptor activation. Type of series: biochemical.
For series [30], the system named is HepG2 cells. The series is described as follows: cells. The note with it: Homo sapiens, HepG2, read-out: Membrane integrity EC50 (μM) (LDH measure).
Series [31] concerns the target T1, PXR. The note with it: taken from Rizzo et al. 2010; cited from earlier work.
For series [32], the target named is T4, CAR. The note with it: read-out: CAR Activation EC50; *inverse agonist; taken from Rizzo et al. 2010; cited from earlier work.

Converted amounts (≈) assume the structure as drawn. Counter-ions that a name gives are not always drawn. Like-named read-outs stand apart in the source and are kept apart here.

What is called IC50 is the concentration needed to halve the response being measured. In general, solubility refers to how much of the substance goes into solution per volume. Consider `CC[C@H]1[C@@H](O)[C@@H]2[C@H]([C@@H](O)C[C@]3(C)[C@@H]([C@H](C)CCC(=O)O)CC[C@@H]23)[C@@]2(C)CC[C@@H](O)C[C@@H]12` [Compound 100, 3α,7α,11β-trihydroxy-6α-ethyl-5β-cholan-24-oic acid], for which the concentration for half-maximal inhibition (IC50) in [1], in series [3], in series [4], in [9], in series [11] and in series [12] was more than 10 µM throughout. Further, in series [13], the half-inhibitory concentration (IC50) was more than 10 µM. In addition, the “LogPA−(d) 1-octanol-water partition coefficient” value in series [2] came to 0.8. Moreover, the “PXR Activation EC50 (μM)” value in series [5] is given as “No activity”. Moreover, in [6], the “RARα Activation EC50 (μM)” value is reported as “No activity”. The solubility in [7] fell in the range of 143 to 150 µM (≈ 62.4 to 65.5 µg/mL). Also, the “viable cells (ATP measurement)” value in series [8] is recorded as 100%. Further, the “block or inhibition of the hERG potassium channel” value (“block or inhibition” for short) in series [10] is “does not block or inhibit”. The living cells entry in [14] (HepG2 cells, LDH measure) was “(100% living cells)”. In addition, in series [14] (LDH release), the “cytotoxic effect on HepG2 cells” value was “does not induce any cytotoxic effect”.
By EC50 is commonly meant the concentration that produces a half-maximal response. As to `CC[C@H]1[C@@H](O)[C@@H]2[C@H](CC[C@]3(C)[C@@H]([C@H](C)CCC(=O)O)CC[C@@H]23)[C@@]2(C)CC[C@@H](O)C[C@@H]12` [Compound A, 6α-ethyl-3α,7α-dihydroxy-5β-cholan-24-oic acid], the 50% inhibitory concentration (IC50) in series [1] is more than 10 µM. The “TR Activation EC50 (μM)” value in [15] is reported as “No activity”. Further, the “LogPA−(d) 1-octanol-water partition coefficient” value in series [2] worked out at 2.5. Further, the “PPARδ Activation EC50 (μM)” value in series [16] is listed as “No activity”. The “CAR Activation EC50 (μM)” value in series [17] was “No activity”. For the same molecule, the “PPARα Activation EC50 (μM)” value in series [18] is recorded as “No activity”. In series [3], this molecule showed an IC50 of more than 10 µM. For the same molecule, in series [19], the “VDR Activation EC50 (μM)” value is on record as “No activity”. Besides, the “STCMC(c) (Dyne/cm) Surface Tension at CMC” value in series [20] is listed as 43.2-48.8 Dyne/cm. Moreover, in series [21], the “PPARγ Activation EC50 (μM)” value is on record as “No activity”. In addition, in series [4], the half-inhibitory concentration (IC50) is more than 10 µM. For the same molecule, the “LXRβ Activation EC50 (μM)” value in [22] was “No activity”. The “PXR Activation EC50 (μM)” value in [5] is “No activity”. The “ER Activation EC50 (μM)” value in series [23] is reported as “No activity”. Further, in series [24], the APOCII gene expression result is recorded as “up”, the BSEP gene expression result is recorded as “up”, the CYP7α1 gene expression result is recorded as “down” and the FGF-19 gene expression entry is “up”. Further, in [24], the MRP2 gene expression result is “up”, the OSTα gene expression entry is on record as “up”, the OSTβ gene expression entry was “up” and the PEPCK gene expression entry is “up”. Besides, in series [24], the PLTP gene expression entry was “up”, the PPARγ gene expression entry is “up”, the SHP gene expression result is listed as “up” and the SREBP-1C gene expression result is listed as “down”. Also, the UGT2B4 gene expression entry in series [24] was “up”. Also, the “RARα Activation EC50 (μM)” value in series [6] is recorded as “No activity”. Further, the “PR Activation EC50 (μM)” value in series [25] is on record as “No activity”. Further, the concentration in solution in [26] (solubility) was 9 µM (≈ 3.79 µg/mL). The same molecule came in with a concentration for half-maximal inhibition (IC50) in series [9] of more than 10 µM. Also, in series [10], the “block or inhibition” value is reported as “does not block or inhibit”. Also, the “CMC(b) (mM) Critical Micellar Concentration” value in series [27] was determined as 2.9 mM. Besides, the IC50 in series [11] is more than 10 µM. The “GR Activation EC50 (μM)” value in series [28] is reported as “No activity”. This molecule also came in with an IC50 in [12] of more than 10 µM. For the same molecule, the 50% inhibitory concentration (IC50) in [13] is more than 10 µM. Also, the “RXR Activation EC50 (μM)” value in [29] is “No activity”. The 50% effective concentration (EC50) in series [30] amounted to 190 ± 30 µM.
On to `CC[C@H]1[C@@H](O)[C@@H]2[C@H](CC[C@]3(C)[C@@H]([C@H](C)CCOS(=O)(=O)O)CC[C@@H]23)[C@@]2(C)CC[C@@H](O)C[C@@H]12` [Compound B, 6α-ethyl-3α,7α,23-trihydroxy-24-nor-5β-cholan-23-sulfate sodium salt], for which the half-inhibitory concentration (IC50) in [1], in [3], in series [4], in [9], in series [11] and in series [12] was more than 10 µM throughout. Besides, the half-maximal inhibitory concentration (IC50) in [13] is more than 10 µM. Besides, in [2], the “LogPA−(d) 1-octanol-water partition coefficient” value amounted to 2.0. In addition, the CYP7α1 gene expression entry in series [24] is “down”. In series [10], the “block or inhibition” value is “does not block or inhibit”. In [31], the “PXR Activation EC50 (μM)” value was “No activity”. The EC50 in series [32] was 44 µM.
